Source: patent US6903134B2, “Formulation comprising benzofuranone derivatives for protection against oxidative stress” (Merck Patent GmbH, priority 2000, dated 2005)

What was measured:
[1] = 2,2-diphenyl-1-picrylhydrazyl (DPPH) assay, free-radical scavenging; format: biochemical; details: for free-radical scavenger / antioxidant properties compared with tocopherol (vitamin E): DPPH assay, same experimental set-up; for Absorbance in %, based on absorbance without THBC: 515 nm, 25° C., 1 cm, constant absorbance
Excerpt: The performance of the DPPH assay is described in Brand-Williams, W., Cuvelier, M. E. & Berset, C. […] Gamez, E. J. et al. “Antioxidant flavonoid glycosides from Daphniphyllum calycinum”; J. Nat. Prod.
2,2-Diphenyl-1-picrylhydrazyl is a free radical which is stable in solution. The unpaired electron results in a strong absorption band at 515 nm, and the solution has a dark violet colour. In the presence of a free-radical scavenger, the electron is paired, the absorption disappears, and the decoloration proceeds stoichiometrically taking into account the electrons taken up. The absorbance is measured in a photometer. The anti-free-radical property of the substance to be tested is determined by measuring the concentration at which 50% of the 2,2-diphenyl-1-picrylhydrazyl employed has reacted with the free-radical scavenger. This concentration is expressed as EC50, a value which can be considered to be a property of the substance under the given measurement conditions. The substance investigated is compared with a standard (for example tocopherol).
In addition, the slope of the straight lines in the linear region is determined and the EC50 calculated.
A 70 μM stock solution of 2,2-diphenyl-1-picrylhydrazyl (DPPH) in ethanol was prepared. Such amounts of 4,6,3′,4′-tetrahydroxybenzylcoumaranone (THBC) were added to aliquots of this solution so as to give the THBC/DPPH ratios indicated in Table 1. The absorbance was in each case measured at 515 nm, 25° C. and 1 cm, with Table 1 in each case indicating the value measured at constant absorbance. The values are plotted graphically against one another in FIG. 1, with the molar ratio being plotted on the x axis and the measured absorbance as a relative proportion of the absorbance measured for the stock solution (100%) being plotted on the y axis.

[2] = Stabilisation of dibenzoylmethane UV filters against decomposition by UV light; format: physicochemical; details: no method or figures given
Excerpt: The invention furthermore relates to the stabilisation of UV filters. A known and effective class of light-protection filter substances is formed by dibenzoylmethane derivatives. However, it is disadvantageous that these substances are very easily decomposed by UV light, and their protective properties are thus lost. An example of a light-protection filter from this class of compounds which is available on the market is 4-(tert-butyl)-4′-methoxydibenzoylmethane, which has the following structure: [drawing 18]

O=C1c2c(O)cc(O)cc2OC1Cc1ccc(O)c(O)c1 (centres unmarked) [THBC, 4,6,3′,4′-tetrahydroxybenzylcoumaranone]
free-radical scavenger / antioxidant properties compared with tocopherol (vitamin E) [1]: better free-radical scavenger properties than tocopherol | free-radical scavenger / antioxidant properties compared with tocopherol (vitamin E) ([1]; listed as 4,6,3′,4′-Tetrahydroxycoumaranone): more potent antioxidant than tocopherol | Absorbance in %, based on absorbance without THBC ([1]; THBC/DPPH 0.01): 97.66% | Absorbance in %, based on absorbance without THBC ([1]; THBC/DPPH 0.02): 94.04% | Absorbance in %, based on absorbance without THBC ([1]; THBC/DPPH 0.05): 87.02% | Absorbance in %, based on absorbance without THBC ([1]; THBC/DPPH 0.07): 79.15% | Absorbance in %, based on absorbance without THBC ([1]; THBC/DPPH 0.10): 72.13% | Absorbance in %, based on absorbance without THBC ([1]; THBC/DPPH 0.12): 62.72% | Absorbance in %, based on absorbance without THBC ([1]; THBC/DPPH 0.18): 44.18% | Absorbance in %, based on absorbance without THBC ([1]; THBC/DPPH 0.24): 26.08% | Absorbance in %, based on absorbance without THBC ([1]; THBC/DPPH 0.30): 16.16% | Absorbance in %, based on absorbance without THBC ([1]; THBC/DPPH 0.37): 15.73% | Absorbance in %, based on absorbance without THBC ([1]; THBC/DPPH 0.43): 15.27% | Absorbance in %, based on absorbance without THBC ([1]; THBC/DPPH 0.49): 15.27% | Absorbance in %, based on absorbance without THBC ([1]; THBC/DPPH 0.55): 15.27% | Absorbance in %, based on absorbance without THBC ([1]; THBC/DPPH 0.61): 15.05% | Absorbance in %, based on absorbance without THBC ([1]; THBC/DPPH 0.73): 14.19% | Absorbance in %, based on absorbance without THBC ([1]; THBC/DPPH 0.97): 14.56% | Absorbance in %, based on absorbance without THBC ([1]; THBC/DPPH 1.21): 14.56% | stabilisation action for dibenzoylmethanes [2]: particularly high stabilisation action
